According to US20070082880A1 (priority 2005, published 2007):

Biological target: T1, human PKCθ full length enzyme (Homo sapiens, UniProt Q04759)
T1 construct: human PKCθ full length enzyme (Panvera Catalog No. P2996); purchased Panvera P2996
Experiment: PKCθ IMAP Assay
Format: biochemical
Conditions: average value when one or more samples were tested; ATP 6 uM, PKCθ 1 nM
Procedure, shortened: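 Full-length human PKCθ (1 nM final) with 6 uM ATP and 100 nM 5FAM-labelled peptide, 5% DMSO, 3.0 mM DTT in reaction buffer. 25 min at room temperature; IMAP bead binding 20 min, fluorescence polarization read. Compounds 2:1 serially diluted; no-ATP and no-enzyme wells as controls.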

T1 sequence (Q04759 whole entry): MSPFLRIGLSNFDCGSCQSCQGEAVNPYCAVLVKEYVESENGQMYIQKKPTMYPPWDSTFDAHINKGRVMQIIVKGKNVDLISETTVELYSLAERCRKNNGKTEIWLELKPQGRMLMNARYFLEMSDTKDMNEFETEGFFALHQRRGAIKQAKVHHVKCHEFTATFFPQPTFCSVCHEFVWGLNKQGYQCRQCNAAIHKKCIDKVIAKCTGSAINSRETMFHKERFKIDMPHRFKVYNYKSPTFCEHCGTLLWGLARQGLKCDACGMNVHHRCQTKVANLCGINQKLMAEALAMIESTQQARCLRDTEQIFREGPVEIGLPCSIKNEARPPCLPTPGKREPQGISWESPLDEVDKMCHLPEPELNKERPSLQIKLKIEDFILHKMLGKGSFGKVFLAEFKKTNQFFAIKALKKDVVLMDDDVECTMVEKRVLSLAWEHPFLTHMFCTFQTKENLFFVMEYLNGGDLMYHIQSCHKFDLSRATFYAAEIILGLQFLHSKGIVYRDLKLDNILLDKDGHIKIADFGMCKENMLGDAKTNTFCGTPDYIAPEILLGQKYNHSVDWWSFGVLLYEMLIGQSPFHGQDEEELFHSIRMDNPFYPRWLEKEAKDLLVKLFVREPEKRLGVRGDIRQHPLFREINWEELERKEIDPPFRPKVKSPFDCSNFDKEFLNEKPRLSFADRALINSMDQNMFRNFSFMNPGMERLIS

Compound | IC50
CN(C)Cc1cc(-c2cc3c(Nc4ccc5[nH]ccc5c4)c(C#N)cnc3s2)co1 [Compound 154, 2-{5-[(dimethylamino)methyl]-3-furyl}-4-(1H-indol-5-ylamino)thieno[2,3-b]pyridine-5-carbonitrile] | 180 nM
CCCCNC(=O)Nc1ccc(-c2cc3c(Nc4ccc5[nH]ccc5c4)c(C#N)cnc3s2)cc1 [Compound 334, N-butyl-N′-{4-[5-cyano-4-(1H-indol-5-ylamino)thieno[2,3-b]pyridin-2-yl]phenyl}urea] | > 12500 nM
COC(=O)Nc1ccc(-c2cc3c(Nc4ccc5[nH]ccc5c4C)c(C#N)cnc3s2)cc1 [Compound 333, methyl (4-{5-cyano-4-[(4-methyl-1H-indol-5-yl)amino]thieno[2,3-b]pyridin-2-yl}phenyl)carbamate] | 616 nM
CN(C)c1ccc(-c2cc3c(Nc4ccc5[nH]ccc5c4)c(C#N)cnc3s2)cc1 [Compound 111, 2-[4-(dimethylamino)phenyl]-4-(1H-indol-5-ylamino)thieno[2,3-b]pyridine-5-carbonitrile] | 370 nM
Cc1c(Nc2c(C#N)cnc3sc(C(=O)NCc4ccccc4)cc23)ccc2[nH]ccc12 [Compound 259, N-benzyl-5-cyano-4-[(4-methyl-1H-indol-5-yl)amino]thieno[2,3-b]pyridine-2-carboxamide] | 155 nM
Cc1c(Nc2c(C#N)cnc3sc(-c4ccc(S(=O)(=O)N(C)C)cc4)cc23)ccc2[nH]ccc12 [Compound 236, 4-{5-cyano-4-[(4-methyl-1H-indol-5-yl)amino]thieno[2,3-b]pyridin-2-yl}-N,N-dimethylbenzenesulfonamide] | 20 nM
N#Cc1cnc2sc(-c3csc(CN4CC[C@H](O)C4)c3)cc2c1Nc1ccc2[nH]ccc2c1 [Compound 157, 2-(5-{[(3S)-3-hydroxypyrrolidin-1-yl]methyl}-3-thienyl)-4-(1H-indol-5-ylamino)thieno[2,3-b]pyridine-5-carbonitrile] | 44 nM
Cc1c(Nc2c(C#N)cnc3sc(-c4ccc(CN5CCN(C)CC5)cc4)cc23)ccc2[nH]ccc12 [Compound 121, 4-[(4-methyl-1H-indol-5-yl)amino]-2-{4-[(4-methylpiperazin-1-yl)methyl]phenyl}thieno[2,3-b]pyridine-5-carbonitrile] | 38 nM

Now from value to compound:

IC50 | Compound
324 nM | Cc1c(Nc2c(C#N)cnc3sc(C4=CCCCC4)cc23)ccc2[nH]ccc12 [Compound 421, 2-cyclohex-1-en-1-yl-4-[(4-methyl-1H-indol-5-yl)amino]thieno[2,3-b]pyridine-5-carbonitrile]
156 nM | Cc1c(Nc2c(C#N)cnc3sc(-c4cnc(N5CCCC5)nc4)cc23)ccc2[nH]ccc12 [Compound 396, 4-[(4-methyl-1H-indol-5-yl)amino]-2-(2-pyrrolidin-1-ylpyrimidin-5-yl)thieno[2,3-b]pyridine-5-carbonitrile]
143 nM | N#Cc1cnc2sc(C3=CCNCC3)cc2c1Nc1cccc2[nH]ccc12 [Compound 473, 4-(1H-indol-4-ylamino)-2-(1,2,3,6-tetrahydropyridin-4-yl)thieno[2,3-b]pyridine-5-carbonitrile]
75 nM | Cc1c(Nc2c(C#N)cnc3sc(-c4ccccc4CO)cc23)ccc2[nH]ccc12 [Compound 398, 2-[2-(hydroxymethyl)phenyl]-4-[(4-methyl-1H-indol-5-yl)amino]thieno[2,3-b]pyridine-5-carbonitrile]
33 nM | C=Cc1cc2c(Nc3ccc4[nH]ccc4c3C)c(C#N)cnc2s1 [Compound 417, 4-[(4-methyl-1H-indol-5-yl)amino]-2-vinylthieno[2,3-b]pyridine-5-carbonitrile]
17 nM | Cc1c(Nc2c(C#N)cnc3sc(-c4cccc(OC[C@H](O)CO)c4)cc23)ccc2[nH]ccc12 [Compound 484, 2-(3-{[(2R)-2,3-Dihydroxypropyl]-oxy}phenyl)-4-[(4-methyl-1H-indol-5-yl)amino]thieno[2,3-b]pyridine-5-carbonitrile]
